Where “and” joins values, the source holds several entries; their conditions need not be identical. Equal values may be shown once.
How the values were obtained:
[1] = tested on: LuxArray 1.0 luxCDABE gene fusions; experiment: LuxArray 1.0 solid phase identification of nalidixic acid responsive gene fusions; format: cell-based, E. coli; settings: 5 μg/ml, duplicate spots; for Solid expt NA/LB, t = 2 hr / Solid expt NA/LB, t = 4 hr / Solid expt NA/LB, t = 6 hr / Solid expt NA/LB, t = 8 hr: normalized; for upregulation on LuxArray 1.0: 4 hours of nalidixic acid treatment
Source text: The genome-registered Lux-A luxCDABE gene fusion collection. (described in Example 1) provided a list of 4988 plasmid-borne gene fusions, each with boundary information relative to the E. coli genome and the orientation relative to the lux operon. An operably linked or a functional construct was defined as one consisting of a genomic fragment encompassing a promoter adjacent to the promoterless lux operon in an orientation that causes transcription initiated at the promoter to proceed into and through the lux operon. Therefore, to identify the functional subset of the collection, criteria were computationally applied to filter the list of clones first for functionality and second for redundancy. A list of definitions of documented and predicted operons (Thieffry et al. (1998) Bioinformatics 14:391-400) was used to define genomic coordinates of the operons as the translational start codon position of the first open reading frame (ORF) in the operon and the translational stop codon position of the last ORF in the operon. Additional information included the strand on which the operon is coded (direction of transcription), and gene names (common or “b” number). The lux gene fusions were filtered computationally using the following assumptions; (i) a functional transcriptional fusion would result from any genomic fragment starting greater than 50 base pairs upstream of the start codon of the first ORF and ending anywhere between the start codon of the first ORF in the operon and the stop codon of the last ORF in the operon, thereby eliminating the occurrence of a transcriptional stop signal in the construct between the promoter and the lux operon; and (ii) the promoter contained in the genomic fragment must face in the correct orientation relative to the lux operon (pictorially represented in FIG. 6). Finally, in cases when more then one clone fit the criteria for a single operon, only the one construct containing the genomic fragment representing the greatest amount of upstream sequence was retained thereby eliminating redundancy. The PERL code used and the resulting list of 689 selected gene fusions are found in Scheme 1 and Table 18 (following Example 7). These fusions represent 27% of the 2584 known and predicted transcriptional units in the E. coli genome. Individual cultures of strains containing the identified gene fusions were rearranged from the ninety original culture plates to create a set of sixteen 96-well microplates containing all the identified fusions, duplicated with side by side symmetry, including appropriately placed controls. These 16 plates represent were used to generate the cellular arrays for use in subsequent analyses.
The E. coli strains were grown overnight at 37° C. in […]) LB medium supplemented with 100 μg/ml ampicillin in a set of sixteen 96-well dishes. These cultures were designated “printing plates” and were used as the cell source to manufacture the arrays. Porous membranes (Biodyne B, Nunc) were sterilized with UV illumination for 10 min then placed in contact with pre-warmed of solid LB growth media in a culture dish (OmniTray, Nunc). Printing of 4×4 subarrays was accomplished using a BioMek 2000 (Beckman Coulter) equipped with a High Density Replication Tool (HDRT). […] After sterilization, the pins are air-dried prior to the next transfer. The E. coli strains in the LuxArray were printed onto an approximately 8×12 cm membrane in two sets of triplicates.
Arrays were printed from fresh overnight cultures onto membranes on plates containing LB media. Alter 6 hr of growth at 37° C. membranes were moved to pre-warmed plates containing either LB media or LB media supplemented with 5 μg/ml nalidixic acid then replaced at 37° C. to continue growing. Images were collected for each array every two hours from 0-8 hr after relocation using a cooled CCD camera (FluorChem 8000: f0.85 lens, 2 min exposure, AlphaInnotech). […]

[2] = tested on: luxCDABE gene fusions of the Lux-A Collection; experiment: Induction of Lux-A Collection gene fusions by MMC (and yebF fusion by nalidixic acid); format: cell-based, E. coli; settings: light-producing transformants with inverted insert (20% of them)
Experimental: The Lux-A Collection of reporter gene fusions was examined for presence of fusions to the genes in Table 11. […] Each of these was tested for induction by MMC at several doses over a time course of 100 minutes.
As expected, the expression of the known SOS genes was elevated; however the expression of several was elevated less than 2-fold (Table 12) and as such were within a large group of 792 genes the expression of which was elevated by 20% or more. Most of these are likely due to artifacts in the array data rather than to actual biologically relevant responses. To test if strains carrying luxCDABE gene fusions would yield the expected positive result, the three gene fusions that were available in the Lux-A Collection of reporter gene fusions were tested for mitomycin C responses.
In this case, a divergent promoter to the purT gene was present in the chromosomal fragment and strains containing the backward yebF fusion produced light. […] […] The orientation of the inserted segment to yield a fusion of yebF to the luxCDABE operon was confirmed by DNA sequence analysis.

[3] = 1pxA 1pxB rnhB dnaE fusion (lux-a.pk061.c3), listed as NA
[4] = b1728 fusion (lux-a.pk033.c5), listed as NA
[5] = b1936 fusion (lux-a.pk0019.g1), listed as NA
[6] = dinG ybiB fusion (lux-a.pk0024.f5), listed as NA
[7] = dinP fusion (lux-a.pk055.a3), listed as NA
[8] = fusion (lux-a.pk0015.d6), listed as NA
[9] = oraA fusion (lux-a.pk058.f5), listed as NA
[10] = uvrA fusion (lux-a.pk0001.b6), listed as NA
[11] = yaaF fusion (lux-a.pk031.e7), listed as NA
[12] = yfhJ fdx hscA yfhE fusion (lux-a.pk0019.g2), listed as NA

`CCn1cc(C(=O)O)c(=O)c2ccc(C)nc21` [Nalidixic acid, nalidixic acid] was tested, and the “Solid expt NA/LB, t = 2 hr” value [1, 3] was 3.5 and 2.7, the “Solid expt NA/LB, t = 4 hr” value [1, 3] was 3.1 and 3.5 and the “Solid expt NA/LB, t = 6 hr” value [1, 3] was 2.8 and 3.0. For the same compound, the “Solid expt NA/LB, t = 8 hr” value [1, 3] was 1.7 and 1.9, the “Solid expt NA/LB, t = 2 hr” value [1, 4] was 3.7 and 2.1 and the “Solid expt NA/LB, t = 4 hr” value [1, 4] was 4.3 and 3.1. The “Solid expt NA/LB, t = 6 hr” value [1, 4] was 3.2 and 3.3, the “Solid expt NA/LB, t = 8 hr” value [1, 4] was 2.6 and 2.5 and the “Solid expt NA/LB, t = 2 hr” value [1, 5] was 2.5 and 4.4. For the same compound, the “Solid expt NA/LB, t = 4 hr” value [1, 5] was 7.7 and 8.2, the “Solid expt NA/LB, t = 6 hr” value [1, 5] was 9.7 and 15.5 and the “Solid expt NA/LB, t = 8 hr” value [1, 5] was 7.1 and 10.2. For the same compound, the “Solid expt NA/LB, t = 2 hr” value [1, 6] was 2.5 and 3.4, the “Solid expt NA/LB, t = 4 hr” value [1, 6] was 3.7 and 4.2 and the “Solid expt NA/LB, t = 6 hr” value [1, 6] was 3.5 and 3.1. The “Solid expt NA/LB, t = 8 hr” value [1, 6] was 2.9 and 2.6, the “Solid expt NA/LB, t = 2 hr” value [1, 7] was 3.1 and 5.5 and the “Solid expt NA/LB, t = 6 hr” value [1, 7] was 4.2 and 8.1. The “Solid expt NA/LB, t = 4 hr” value ([1]; frvR frvX frvB frvA fusion (lux-a.pk046.e6)) was 2.3, the “Solid expt NA/LB, t = 2 hr” value ([1]; frvR frvX frvB frvA fusion (lux-a.pk046.e6), listed as NA) was 2.8 and 2.1 and the “Solid expt NA/LB, t = 2 hr” value [1, 8] was 2.3 and 2.2. For the same compound, the “Solid expt NA/LB, t = 4 hr” value [1, 8] was 6.4 and 4.1, the “Solid expt NA/LB, t = 6 hr” value [1, 8] was 2.7 and 1.9 and the “Solid expt NA/LB, t = 8 hr” value [1, 8] was 0.6 and 0.8. For the same compound, the “Solid expt NA/LB, t = 2 hr” value [1, 9] was 5.1 and 4.7, the “Solid expt NA/LB, t = 4 hr” value [1, 9] was 7.9 and 7.7 and the “Solid expt NA/LB, t = 6 hr” value [1, 9] was 5.9 and 5.6. The “Solid expt NA/LB, t = 8 hr” value [1, 9] was 3.9 and 3.8, the “upregulation on LuxArray 1.0” value ([1]; ruvA fusion) was 1.7 fold and 2.1 fold and the “Solid expt NA/LB, t = 2 hr” value [1, 10] was 2.5 and 2.9. The “Solid expt NA/LB, t = 4 hr” value [1, 10] was 2.3 and 2.4, the “Solid expt NA/LB, t = 6 hr” value [1, 10] was 1.6 and 1.1 and the “Solid expt NA/LB, t = 8 hr” value [1, 10] was 1.0 and 0.6. The “upregulation on LuxArray 1.0” value ([1]; uvrD fusion) was 1.6 fold and 1.9 fold, the “Solid expt NA/LB, t = 2 hr” value [1, 11] was 2.1 and 2.0 and the “Solid expt NA/LB, t = 4 hr” value [1, 11] was 2.0 and 2.1. The “Solid expt NA/LB, t = 6 hr” value [1, 11] was 1.3 and 1.8, the “Solid expt NA/LB, t = 8 hr” value [1, 11] was 1.0 and 1.5 and the “Solid expt NA/LB, t = 2 hr” value ([1]; yfhJ fdx hscA yfhE fusion (lux-a.pk0019.g2)) was 2.1. The “Solid expt NA/LB, t = 4 hr” value [1, 12] was 2.0 and 2.2, the “Solid expt NA/LB, t = 6 hr” value [1, 12] was 1.7 and 1.5 and the “Solid expt NA/LB, t = 8 hr” value [1, 12] was 1.4 and 1.3. The “Solid expt NA/LB, t = 4 hr” value ([1]; yigN fusion (lux-a.pk046.f11), listed as NA) was 2.5 and 4.3 and the “induction of bioluminescence of inverted yebF-luxCDABE fusion” value [2] was “highly induced”.

— US20040009485A1, “Cellular arrays for the identification of altered gene expression” (priority 2002, published 2004)
